Test results published in PMC5023172, “Preclinical Activity of ARQ 087, a Novel Inhibitor Targeting FGFR Dysregulation” (PLoS ONE, 2016).

Tested on: Ba/F3-INSR xenograft
Test: Xenograft tumor growth inhibition
Assay type: in vivo, mice
Source text: Six week old female NCr nu/nu mice (for SNU-16) or CB-17 SCID female mice (for NCI-H716 and BaF3 models) were purchased from Taconic Farms (Germantown, NY) and allowed to acclimate for greater than 2 weeks. Mice were housed in sterile micro isolator cages with 5 mice per cage and were received food and water ad libitum. Tumor cells were suspended in 50% Matrigel (lot# A9618-BD, Bioscience) and sterile Hanks Balanced Salt Solution (HBSS) for the NCI-H716 model or in HBSS alone for SNU-16. Each mouse was implanted subcutaneously with 5x10^6 cells (SNU-16) or 8x10^6 cells (NCI-H716) or 2x10^6 cells (BaF3) to the upper right flank area. Tumor measurements and body weights were collected two to three times per week with electronic calipers and balance. Tumor weight (mg) was calculated from the equation: length x (width)^2/2. This formula was used to calculate tumor volume assuming unit density 1 mg = 1 mm^3. Treatment was initiated when tumor burden was between 100–200 mgs. Percent inhibition or tumor growth inhibition (TGI) was calculated using the following formula: 100-[mean tumor value of treated / mean tumor value of control] x 100.
Plasma and tumor samples were collected 4 hours post single dose. […] Dosing volume for all groups was 10 mL/kg or 0.1 mL/10 g body weight.

With CC[C@]1(O)C[C@@H]2CN(CCc3c([nH]c4ccccc34)[C@@](C(=O)OC)(c3cc4c(cc3OC)N(C)[C@H]3[C@@](O)(C(=O)OC)[C@H](OC(C)=O)[C@]5(CC)C=CCN6CC[C@]43[C@@H]65)C2)C1 [Vinblastine] the T/C (10 mg/kg IV Q5Dx2, Day 10) was 100.48, the “Tumor Weights (mg), MEAN” value (10 mg/kg IV Q5Dx2, Day 10) was 230.70 mg and the T/C (10 mg/kg IV Q5Dx2, Day 13) was 42.10. The “Tumor Weights (mg), MEAN” value (10 mg/kg IV Q5Dx2, Day 13) was 256.70 mg, the T/C (10 mg/kg IV Q5Dx2, Day 15) was 37.24 and the “Tumor Weights (mg), MEAN” value (10 mg/kg IV Q5Dx2, Day 15) was 325.90 mg. The T/C (10 mg/kg IV Q5Dx2, Day 17) was 11.60, the “Tumor Weights (mg), MEAN” value (10 mg/kg IV Q5Dx2, Day 17) was 196.60 mg and the T/C (10 mg/kg IV Q5Dx2, Day 20) was 2.84. The “Tumor Weights (mg), MEAN” value (10 mg/kg IV Q5Dx2, Day 20) was 69.22 mg.
